# What was measured:
# [1] = organism: Rattus norvegicus; assay: The ratio of the conc of compound to dequalinium to cause 50% inhibition of the after hyperpolarization (AHP) in cultured rat sympathetic neurones; assay type: functional, Sympathetic neuron
# [2] = organism: Rattus norvegicus; assay: Compound was tested for SKCa blocking action by measuring its ability to inhibit after hyperpolarization (AHP) in cultured rat sympathetic neurones; assay type: functional; details: Sympathetic neuron
Compound,IC50 [2],EMR [1]
c1cc2cc(c1)C[n+]1ccc(c3ccccc31)NCc1ccc(cc1)CNc1cc[n+](c3ccccc13)C2,3 nM,0.01
c1cc2cc(c1)CNc1cc[n+](c3ccccc13)Cc1cccc(c1)C[n+]1ccc(c3ccccc31)NC2,130 nM,0.22
c1cc2cc(c1)CNc1cc[n+](c3ccccc13)Cc1ccc(cc1)C[n+]1ccc(c3ccccc31)NC2,70 nM,0.18
Cc1cc(N)c2ccccc2[n+]1CCCCCCCCCC[n+]1c(C)cc(N)c2ccccc21.[Cl-].[Cl-] [DEQUALINIUM CHLORIDE],570 nM,1

# Now from value to compound, other results behind:
IC50 [2],Compound,EMR [1]
280 nM,c1ccc2c(c1)c1cc[n+]2Cc2ccc(cc2)Cc2ccc(cc2)C[n+]2ccc(c3ccccc32)NCc2ccc(cc2)-c2ccc(cc2)CN1,0.8
260 nM,c1ccc2c(c1)c1cc[n+]2Cc2ccc(cc2)Cc2ccc(cc2)C[n+]2ccc(c3ccccc32)NCc2ccc(cc2)Cc2ccc(cc2)CN1,0.31
150 nM,c1ccc2c(c1)c1cc[n+]2Cc2ccc(cc2)-c2ccc(cc2)C[n+]2ccc(c3ccccc32)NCc2ccc(cc2)Cc2ccc(cc2)CN1,0.26
28 nM,c1ccc2c(c1)c1cc[n+]2Cc2ccc(cc2)C[n+]2ccc(c3ccccc32)NCc2ccc(cc2)CN1,0.05

# — ChEMBL document CHEMBL1131200, “Bis-quinolinium cyclophanes: 6,10-diaza-3(1,3),8(1,4)-dibenzena-1,5(1,4)- diquinolinacyclodecaphane (UCL 1684), the first nanomolar, non-peptidic blocker of the apamin-sensitive Ca(2+)-activated K+ channel” (J Med Chem, 1998)
